Experimental data taken from ChEMBL document CHEMBL1148885, “Modeling assisted rational design of novel, potent, and selective pyrrolopyrimidine DPP-4 inhibitors” (Bioorg Med Chem Lett, 2007).

Tests used:
[1] = molecular target: Dipeptidyl peptidase 4 (Homo sapiens, UniProt P27487)
[2] = molecular target: Dipeptidyl peptidase 2 (Homo sapiens, UniProt Q9UHL4); assay: Inhibition of QPP
[3] = molecular target: Dipeptidyl peptidase 9 (Homo sapiens, UniProt Q86TI2)
[4] = molecular target: Dipeptidyl peptidase 8 (Homo sapiens, UniProt Q6V1X1); assay: Inhibition of DPP8
Sequence of Dipeptidyl peptidase 8 (Q6V1X1 whole entry): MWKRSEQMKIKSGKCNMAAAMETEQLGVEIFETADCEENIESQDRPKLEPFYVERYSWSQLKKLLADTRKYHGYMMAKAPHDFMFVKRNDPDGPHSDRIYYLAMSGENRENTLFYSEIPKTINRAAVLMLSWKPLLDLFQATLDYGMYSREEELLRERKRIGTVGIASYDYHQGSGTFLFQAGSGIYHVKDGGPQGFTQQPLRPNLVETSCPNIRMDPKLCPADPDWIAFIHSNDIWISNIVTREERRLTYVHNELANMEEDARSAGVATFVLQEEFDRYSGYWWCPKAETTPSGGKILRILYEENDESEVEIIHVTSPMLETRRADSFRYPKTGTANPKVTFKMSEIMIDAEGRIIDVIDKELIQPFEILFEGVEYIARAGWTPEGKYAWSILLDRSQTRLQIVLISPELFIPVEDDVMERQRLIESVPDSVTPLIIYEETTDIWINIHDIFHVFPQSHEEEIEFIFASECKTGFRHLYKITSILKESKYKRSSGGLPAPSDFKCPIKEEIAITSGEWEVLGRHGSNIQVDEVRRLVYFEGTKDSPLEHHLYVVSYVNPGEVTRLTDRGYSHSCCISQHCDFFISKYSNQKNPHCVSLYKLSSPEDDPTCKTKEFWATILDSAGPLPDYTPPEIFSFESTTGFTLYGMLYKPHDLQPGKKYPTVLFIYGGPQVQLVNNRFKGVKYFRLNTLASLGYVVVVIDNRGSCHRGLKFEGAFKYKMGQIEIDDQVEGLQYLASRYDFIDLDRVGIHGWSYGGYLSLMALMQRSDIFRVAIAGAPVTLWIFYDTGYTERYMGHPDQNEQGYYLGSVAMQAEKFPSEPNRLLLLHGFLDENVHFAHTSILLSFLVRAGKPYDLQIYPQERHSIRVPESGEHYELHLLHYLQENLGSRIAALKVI

Sequence of Dipeptidyl peptidase 4 (P27487 whole entry): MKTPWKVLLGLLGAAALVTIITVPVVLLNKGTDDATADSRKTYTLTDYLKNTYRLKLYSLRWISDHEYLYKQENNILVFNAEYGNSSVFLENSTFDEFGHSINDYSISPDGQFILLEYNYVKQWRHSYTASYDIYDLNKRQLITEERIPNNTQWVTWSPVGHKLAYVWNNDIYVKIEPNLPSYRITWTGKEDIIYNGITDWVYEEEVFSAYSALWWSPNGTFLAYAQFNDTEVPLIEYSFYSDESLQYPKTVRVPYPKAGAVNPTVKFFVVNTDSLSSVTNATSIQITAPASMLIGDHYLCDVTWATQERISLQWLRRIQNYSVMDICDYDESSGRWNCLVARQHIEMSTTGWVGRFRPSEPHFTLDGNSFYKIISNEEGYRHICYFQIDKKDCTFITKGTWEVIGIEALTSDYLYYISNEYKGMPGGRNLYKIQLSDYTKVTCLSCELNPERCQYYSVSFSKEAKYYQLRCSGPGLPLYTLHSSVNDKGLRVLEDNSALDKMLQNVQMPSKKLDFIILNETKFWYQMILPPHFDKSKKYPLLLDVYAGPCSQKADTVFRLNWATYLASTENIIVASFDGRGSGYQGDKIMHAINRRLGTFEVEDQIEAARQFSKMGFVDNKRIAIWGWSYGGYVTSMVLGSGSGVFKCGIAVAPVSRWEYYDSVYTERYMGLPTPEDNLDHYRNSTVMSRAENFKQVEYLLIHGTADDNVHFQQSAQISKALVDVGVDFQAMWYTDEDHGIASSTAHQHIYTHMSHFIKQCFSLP
Sequence of Dipeptidyl peptidase 9 (Q86TI2 whole entry): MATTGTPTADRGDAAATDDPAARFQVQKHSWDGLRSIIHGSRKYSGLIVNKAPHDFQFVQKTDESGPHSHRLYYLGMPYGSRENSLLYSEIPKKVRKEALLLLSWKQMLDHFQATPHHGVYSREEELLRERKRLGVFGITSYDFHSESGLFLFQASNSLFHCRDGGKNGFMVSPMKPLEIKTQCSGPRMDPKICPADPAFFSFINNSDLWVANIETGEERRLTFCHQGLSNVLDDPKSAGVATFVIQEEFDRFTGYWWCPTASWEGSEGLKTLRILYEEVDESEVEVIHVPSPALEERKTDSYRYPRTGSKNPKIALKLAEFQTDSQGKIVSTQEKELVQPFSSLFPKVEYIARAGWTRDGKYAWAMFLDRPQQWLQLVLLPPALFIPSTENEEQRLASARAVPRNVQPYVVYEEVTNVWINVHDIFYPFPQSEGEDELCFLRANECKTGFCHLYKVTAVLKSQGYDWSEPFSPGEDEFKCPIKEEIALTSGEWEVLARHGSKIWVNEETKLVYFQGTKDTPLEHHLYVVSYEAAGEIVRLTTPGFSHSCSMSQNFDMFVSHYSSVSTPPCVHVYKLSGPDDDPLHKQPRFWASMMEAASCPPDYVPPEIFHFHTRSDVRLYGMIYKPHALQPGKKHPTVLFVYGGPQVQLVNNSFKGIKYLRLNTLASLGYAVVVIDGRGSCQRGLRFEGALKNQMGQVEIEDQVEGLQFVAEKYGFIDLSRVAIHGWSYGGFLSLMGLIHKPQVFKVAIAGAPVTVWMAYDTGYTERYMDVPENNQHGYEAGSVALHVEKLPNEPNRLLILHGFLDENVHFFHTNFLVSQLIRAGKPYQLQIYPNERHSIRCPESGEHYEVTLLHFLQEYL

SMILES	IC50 [1]	IC50 [2]	IC50 [3]	IC50 [4]
N[C@H]1C[C@@H](N2Cc3cncnc3C2)CC[C@@H]1c1cc(F)c(F)cc1F	0.00067 µM	> 100 µM	–	–
N[C@H]1C[C@@H](N2Cc3ccccc3C2)CC[C@@H]1c1cc(F)c(F)cc1F	0.0066 µM	68 µM	–	–
N[C@H]1C[C@@H](N2CCn3c(nnc3C(F)(F)F)C2)CC[C@@H]1c1cc(F)c(F)cc1F	–	> 100 µM	> 100 µM	> 100 µM
N[C@H]1C[C@@H](N2Cc3cnc(C4CC4)nc3C2)CC[C@@H]1c1cc(F)c(F)cc1F	0.0053 µM	61 µM	–	–
